{
  "source": "paper PMC6691385",
  "about": "“Au Hollow Nanorods-Chimeric Peptide Nanocarrier for NIR-II Photothermal Therapy and Real-time Apoptosis Imaging for Tumor Theranostics” (Theranostics, 2019)",
  "key": {"[1]": {"system": "HeLa cells", "assay": "MTT cytotoxicity assay", "format": "cell-based", "settings": "10 ppm; cells treated with AuHNRs-DTPP and laser", "procedure": "The in vitro cytotoxicity of AuHNRs-DTPP nanocarrier against HeLa cells were studied by standard MTT assay. In brief, HeLa cells were seeded on 96-well plates with a density of 5000 cells per well. When the cell density came to 80%, the medium was removed and various concentrations of AuHNRs-DTPP nanocarrier in DMEM with 10% FBS were added. After incubation for 6 h, the medium was replaced by 200 μL of fresh medium. For none-treated group or single laser treated group, cells received corresponding treatment and then further incubated for 48 h. And for combined treatment group, cells received 1064 nm laser irradiation and incubated for 2 h. After that, cells received laser irradiation (633 nm) and then further incubated for 48 h. Then, the standard MTT assay was conducted to determine the cell viability. And for COS-7, same operation process was taken."}, "[2]": {"assay": "Solubility of DTPP", "format": "physicochemical"}, "[3]": {"assay": "Fluorescence, ROS and singlet oxygen generation, cell-free"}, "[4]": {"system": "H22 tumor", "assay": "In vivo fluorescence imaging", "settings": "tumor bearing mice; i.v.; before laser irradiation, within 8 h", "procedure": "Animal experiments were conducted based on the guidelines for laboratory animals established by the Huazhong Agricultural University. In vivo imaging started when tumor volume approximated 200 mm^3. For photothermal imaging 200 μL AuHNRs-DTPP was intravenously injected into the mice, and the equal volume of PBS buffer was taken as the control. Infrared thermal images were recorded by using a FLIR E85 camera under 1064 nm laser irradiation at a power density of 0.69 W·cm^-2. In vivo fluorescence imaging was collected by a Maestro in vivo imaging system. The tumor bearing mice were intravenously administrated with 200 μL AuHNRs-DTPP (1 g·L^-1) or free DTPP (30 mg·L^-1) solution. Then the mice were anesthetized and imaged at pre-set time. It should be noted that mice received 1064 nm laser irradiation (10 min, 0.69 W·cm^-2) at the 8th h post-injection."}},
  "data": [
    {"compound": "O=C1O[C@H]([C@@H](O)CO)C(O)=C1O", "note": "[Vitamin C]", "values": [
      {"measurement": "effect on cell viability as ROS scavenger", "setting": "[1]", "value": "significantly improve the cell viability"}
    ]},
    {"compound": "PpIX-PEG8-GGK(TPP)GRDEVDGC [DTPP]", "values": [
      {"measurement": "solubility in DI water", "setting": "[2]; DI water", "value": "almost insoluble"},
      {"measurement": "solubility in PBS", "setting": "[2]; PBS", "value": "good solubility"},
      {"measurement": "singlet oxygen ESR signal", "setting": "[3]; treated with laser", "value": "obvious ESR signal"},
      {"measurement": "singlet oxygen ESR signal", "setting": "[3]; without laser irradiation", "value": "no ESR signal"},
      {"measurement": "in vivo fluorescence signal", "setting": "[4]", "value": "fluorescence signal appeared all over the body"}
    ]}
  ]
}
